Source: PubChem BioAssay (NCI)
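In this assay, cells in 96-well plates receive the compound at five concentrations for 48 hours. Endpoints are linearly interpolated between the surrounding concentrations. GI50 = concentration required for 50% inhibition of growth. TGI is the concentration that stops growth completely.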

How the values were obtained:
Test in all cases: NCI tumour cell line growth inhibition, 48 h
[1] = system: EKVX NSCLC
[2] = system: SNB-19 CNS
[3] = system: SK-OV-3 ovarian
[4] = system: SK-MEL-2 melanoma
[5] = system: BT-549 breast
[6] = system: SF-295 CNS
[7] = system: SW-620 colon
[8] = system: NCI-H460 lung
[9] = system: HOP-62 NSCLC
[10] = system: RXF 393 renal
[11] = system: KM12 colon
[12] = system: NCI-H226 lung
[13] = system: UACC-257 melanoma
[14] = system: MDA-MB-468 breast
[15] = system: LOX IMVI melanoma
[16] = system: IGROV1 ovarian
[17] = system: RPMI-8226 leukemia
[18] = system: SK-MEL-5 melanoma
[19] = system: SK-MEL-28 melanoma
[20] = system: HCT-15 colon
[21] = system: K-562 leukemia
[22] = system: UO-31 renal
[23] = system: SR leukemia
[24] = system: A549 NSCLC
[25] = system: A498 renal
[26] = system: DU-145 prostate
[27] = system: HS 578T breast
[28] = system: CAKI-1 renal
[29] = system: COLO 205 colon
[30] = system: 786-0 renal
[31] = system: HCT-116 colon
[32] = system: SNB-75 CNS
[33] = system: MCF7 breast
[34] = system: ACHN renal
[35] = system: MDA-MB-435
[36] = system: MDA-MB-231 breast
[37] = system: NCI/ADR-RES ovarian
[38] = system: MOLT-4 leukemia
[39] = system: M14 melanoma
[40] = system: HT29 colon
[41] = system: NCI-H522 lung
[42] = system: SF-539 CNS
[43] = system: HCC-2998 colon
[44] = system: TK-10 renal
[45] = system: UACC-62 melanoma
[46] = system: HOP-92 NSCLC
[47] = system: NCI-H23 lung
[48] = system: HL-60(TB) leukemia
[49] = system: PC-3 prostate
[50] = system: OVCAR-8 ovarian
[51] = system: T-47D breast
[52] = system: OVCAR-4 ovarian
[53] = system: OVCAR-3 ovarian
[54] = system: CCRF-CEM leukemia
[55] = system: U251 CNS
[56] = system: OVCAR-5 ovarian
[57] = system: SF-268 CNS
[58] = system: MALME-3M melanoma
[59] = system: SN12C renal

SMILES: O=C(Nc1ccc(Cl)c([N+](=O)[O-])c1)Nc1ccc(Cl)c([N+](=O)[O-])c1
- GI50 [1]: 3.56 µM
- TGI [1]: 13.1 µM
- GI50 [2]: 2.68 µM
- TGI [2]: 10.5 µM
- GI50 [3]: 4.04 µM
- TGI [3]: 15.5 µM
- GI50 [4]: 2.9 µM
- TGI [4]: 9.11 µM
- GI50 [5]: 2.79 µM
- TGI [5]: 9.94 µM
- GI50 [6]: 2.46 µM
- TGI [6]: 7.83 µM
- GI50 [7]: 3.43 µM
- TGI [7]: 13 µM
- GI50 [8]: 3.22 µM
- TGI [8]: 10.6 µM
- GI50 [9]: 4.63 µM
- TGI [9]: 17.2 µM
- GI50 [10]: 11.3 µM
- TGI [10]: 24.8 µM
- GI50 [11]: 3.49 µM
- TGI [11]: 12.6 µM
- GI50 [12]: 2.92 µM
- TGI [12]: 10.1 µM
- GI50 [13]: 4.81 µM
- TGI [13]: 17.2 µM
- GI50 [14]: 2.2 µM
- TGI [14]: 6.48 µM
- GI50 [15]: 3.13 µM
- TGI [15]: 9.64 µM
- GI50 [16]: 3.02 µM
- TGI [16]: 9.14 µM
- GI50 [17]: 2.27 µM
- TGI [17]: 6.32 µM
- GI50 [18]: 2.94 µM
- TGI [18]: 10.5 µM
- GI50 [19]: 3.78 µM
- TGI [19]: 14.4 µM
- GI50 [20]: 2.83 µM
- TGI [20]: 10.9 µM
- GI50 [21]: 2.8 µM
- TGI [21]: 14.1 µM
- GI50 [22]: 2.82 µM
- TGI [22]: 10.1 µM
- GI50 [23]: 3.57 µM
- TGI [23]: 20.3 µM
- GI50 [24]: 4.29 µM
- TGI [24]: 16.9 µM
- GI50 [25]: 3.33 µM
- TGI [25]: 10.8 µM
- GI50 [26]: 3.66 µM
- TGI [26]: 13.8 µM
- GI50 [27]: 5.46 µM
- TGI [27]: 31.3 µM
- GI50 [28]: 2.98 µM
- TGI [28]: 10.5 µM
- GI50 [29]: 2.69 µM
- TGI [29]: 6.97 µM
- GI50 [30]: 2.91 µM
- TGI [30]: 11.9 µM
- GI50 [31]: 3.19 µM
- TGI [31]: 9.34 µM
- GI50 [32]: 3.82 µM
- TGI [32]: 19.5 µM
- GI50 [33]: 2.31 µM
- TGI [33]: 7.43 µM
- GI50 [34]: 2.69 µM
- TGI [34]: 7.44 µM
- GI50 [35]: 3.71 µM
- TGI [35]: 12.8 µM
- GI50 [36]: 3.05 µM
- TGI [36]: 8.99 µM
- GI50 [37]: 3.2 µM
- TGI [37]: 11.2 µM
- GI50 [38]: 3.12 µM
- TGI [38]: 14.6 µM
- GI50 [39]: 4.04 µM
- TGI [39]: 15 µM
- GI50 [40]: 3.34 µM
- TGI [40]: 13.3 µM
- GI50 [41]: 2.34 µM
- TGI [41]: 5.81 µM
- GI50 [42]: 4.88 µM
- TGI [42]: 17.3 µM
- GI50 [43]: 3.32 µM
- TGI [43]: 11.9 µM
- GI50 [44]: 4.31 µM
- TGI [44]: 16.6 µM
- GI50 [45]: 2.74 µM
- TGI [45]: 10.6 µM
- GI50 [46]: 2.28 µM
- TGI [46]: 6.53 µM
- GI50 [47]: 2.36 µM
- TGI [47]: 6.35 µM
- GI50 [48]: 2.72 µM
- TGI [48]: 7.11 µM
- GI50 [49]: 2.83 µM
- TGI [49]: 10.9 µM
- GI50 [50]: 4.06 µM
- TGI [50]: 14.7 µM
- GI50 [51]: 2.2 µM
- TGI [51]: 9.1 µM
- GI50 [52]: 2.95 µM
- TGI [52]: 11.3 µM
- GI50 [53]: 2.6 µM
- TGI [53]: 7.91 µM
- GI50 [54]: 2.95 µM
- TGI [54]: 11.3 µM
- GI50 [55]: 3.02 µM
- TGI [55]: 12.2 µM
- GI50 [56]: 7.12 µM
- TGI [56]: 20.7 µM
- GI50 [57]: 3.87 µM
- TGI [57]: 15.8 µM
- GI50 [58]: 3.02 µM
- TGI [58]: 11.8 µM
- GI50 [59]: 2.92 µM
- TGI [59]: 9.19 µM
